Results taken from patent EP4496786B1, “CRYSTALLINE FORM OF 2-ACRYLAMIDO-2-METHYLPROPANESULPHONIC ACID POTASSIUM SALT” (SNF Group, priority 2023, dated 2024).

Key:
Assay type in all cases: physicochemical
[1] = Storage stability of ATBS / ATBS.K stored in solid form: homopolymer by steric exclusion chromatography; conditions: newly prepared solution
Protocol: In parallel, the stability of the different ATBS (acid AH or potassium salt AK2a) in solid form was also assessed over the same period of time.
In this case, every three months, 500 g of a solution of ATBS.K was freshly prepared according to the preparation process described in example 10a or 11 using the stored ATBS products of AH, AK2a and CE-AK2c to 2e.
Stability of the solid products was also assessed by monitoring the amount of homopolymers of ATBS.K present after that time.
The solutions were analysed by liquid-phase steric exclusion chromatography using an Agilent 1260 chromatograph equipped with Aquagel-OH 20, 30, 40 and 50 columns allowing analysis of anionic polymers up to 600,000 g/mol PEG equivalent.
The solutions of ATBS.K were diluted to 2000 ppm (by weight in water) before being injected. The UV signal at 250 nm at the column outlet was integrated for the polymer peaks and are detailed in tables 4 and 5 below. The larger the signal area, the more polymer is present, and therefore the lower the stability of the product over time. Table 4: Stability of ATBS and ATBS potassium salt stored in solutions

[2] = Minimum ignition energy (MIE), standard NF EN 13821, vertical Hartmann tube; conditions: dispersed solid mass 0,5 g
From the text: The minimum ignition energy represents the minimum energy that must be supplied to a product (chemical compound) to cause it to ignite. The energy may be electrical or thermal. The minimum ignition energy is an essential piece of information when considering the risk of explosion during product handling (transfer, storage, reaction, shaping, etc.). In the case of solids, this energy is the minimum energy of an electric spark likely to ignite a cloud of dust. The higher the value of the minimum ignition energy, the less risk the solid presents when used, handled or stored. The minimum ignition energy is measured in accordance with standard NF EN 13821. The explosimeter is a vertical Hartmann tube. The dust dispersion system is of the mushroom type. Total induction is less than 25 microhenry. Discharge voltage is between 5 kV and 15 kV. The electrodes are made of brass and spaced apart by a minimum distance of 6 mm.

[3] = Particle-size distribution by laser diffraction (Cilas 1190)
Protocol: ATBS AH and crystals of ATBS.K AK2a are analysed by laser diffraction to determine their particle-size distribution.
The laser diffraction equipment used is a Cilas 1190.

Row | Structure (SMILES) | UV signal at 250 nm integrated for the polymer peaks ([1]; T0) [mV.s] | UV signal at 250 nm integrated for the polymer peaks ([1]; T0 + 3 months, potassium salt) [mV.s] | UV signal at 250 nm integrated for the polymer peaks ([1]; T0 + 6 months) [mV.s] | UV signal at 250 nm integrated for the polymer peaks ([1]; T0 + 9 months) [mV.s] | UV signal at 250 nm integrated for the polymer peaks ([1]; T0 + 12 months) [mV.s] | 90% of the particles are smaller than [3] | d50 value [3] | also measured
1 | C=CC(=O)NC(C)(C)CS(=O)(=O)[O-].[K+] [ATBS.K CE-AK2c, 2-acrylamido-2-methylpropanesulphonic acid potassium salt] | 0 | 261 | – | – | – | – | – | –
2 | C=CC(=O)NC(C)(C)CS(=O)(=O)[O-].[K+] [ATBS.K CE-AK2d, 2-acrylamido-2-methylpropanesulphonic acid potassium salt] | 0 | 254 | – | – | – | – | – | –
3 | C=CC(=O)NC(C)(C)CS(=O)(=O)[O-].[K+] [ATBS.K CE-AK2e, 2-acrylamido-2-methylpropanesulphonic acid potassium salt] | 0 | 251 | – | – | – | – | – | –
4 | C=CC(=O)NC(C)(C)CS(=O)(=O)O [ATBS AH, 2-acrylamido-2-methylpropanesulphonic acid] | 0 | – | 7702 | 10503 | 256300 | 100 µm | approximately 40 µm | Flame ([2]; Energy 300 mJ): Average; Pressure ([2]; Energy 300 mJ): Average; Flame ([2]; Energy 500 mJ): Average; Pressure ([2]; Energy 500 mJ): Average; Flame ([2]; Energy 1000 mJ): Small; Pressure ([2]; Energy 1000 mJ): Low; UV signal at 250 nm integrated for the polymer peaks ([1]; T0 + 3 months): 250 mV.s
5 | C=CC(=O)NC(C)(C)CS(=O)(=O)[O-].[K+] [ATBS.K AK2a, 2-acrylamido-2-methylpropanesulphonic acid potassium salt] | 0 | 200 | 6532 | 9532 | 25631 | approximately 1500 µm | approximately 600 µm | Flame ([2]; High energy): Small; Pressure ([2]; High energy): Low; particles smaller than 325 µm [3]: less than 10%
